Laboratory results as given in patent US20230045151A1, “COMPOSITIONS AND METHODS” (MONASH UNIVERSITY, priority 2020, published 2023).
Structures can show the parent of a compound that is named as a salt.

Legend:
[1] = system: C57BL6/J mice exposed intranasally to house dust mite extract (HDM); assay: HDM animal model of allergic airway inflammation; type: in vivo, mouse
Procedure: Mice received water as a control or L-tyrosine (reagent grade, ≥98% Sigma-Aldrich, St. Louis, Mo.) resuspended in drinking water under sterile conditions at the concentration of 100 mg/kg/day or 500 mg/kg/day (based on the assumption of a mouse consuming 4 ml of water daily). All mice received the treatment 2 weeks prior and throughout the experiment. […] Control mice received 200 μl of saline. […]. For experiments employing antibiotic treatment, 3-week old mice were treated with a combination enrofloxacin (10 mg/kg/day) and amoxicillin with clavulanic acid (1 mg/kg/day) for one week, followed by one week of only amoxicillin with clavulanic acid (1 mg/kg/day). Then, mice were then put on L-tyrosine diet in drinking water for two weeks followed by HDM exposure as before. During this time, mice were maintained on antibiotic treatment with amoxicillin/clavulanic acid until end of experiment.
Mice were anaesthetised by the inhalation of 4% isoflurane in oxygen for 3-5 minutes. 20 μg of protein content of crude house dust mite extract (HDM) (Greer Laboratories Inc., Lenoir, N.C.) in 20 μl of sterile phosphate-buffered saline (PBS) (Gibco™) was applied intranasally on days 0, 11, 12 and 13. Mice were humanely sacrificed with the lethal dose of pentobarbital (Streuli Pharma AG, Uznach, Switzerland) on day 14.
Bronchoalveolar lavage fluid (BALF) was collected by flushing airways with 0.5 ml PBS supplemented with 0.2% bovine serum albumin (Sigma-Aldrich, St. Louis, Mo.). Total cell number was determined with Coulter Counter (IG Instrumenten-Gesellschaft AG, Basel, Switzerland) while differential cell staining performed on cytospins stained with Diff-Quik solution (Dade Behring, Siemens Healthcare Diagnostics, Deerfield, Ill.). Percentages of neutrophils, macrophages, lymphocytes and eosinophils were assessed by counting 200 cells per sample.
Concentrations of interleukin-4, -5, -13, -17 and IFN-γ in culture supernatants were analysed with mouse Ready-Set-Go!™ ELISA kits (eBioscience™, San Diego, Calif.) according to manufacturer's instructions. To measure the levels of HDM-specific IgG1 and IgE in plasma, half area 96-well plates (Corning) were coated with HDM (10 μg in PBS) overnight at 4° C., followed by the incubation of samples for 2 hours at RT, and the addition of alkaline-phophatase-conjugated goat anti-mouse IgE or IgG1 (both from SouthernBiotech, Birmingham, Ala.; diluted at 1 μg ml-1 in PBS 0.2% BSA) for 2 hours at RT. 4-nitrophenyl phosphate sodium salt hexahydrate (pNPP) (Sigma) was used as a substrate, and the colorimetric reaction was read at 405 nm on the Synergy H1 microplate reader (Biotek, Luzern, Switzerland). To measure the levels of total IgA and IgM as well as hen egg lysozyme (HEL)-specific IgA and IgM in mouse faeces, faecal pellets were homogenized in 0.8 ml cold PBS, centrifuged at 400 g for 5 minutes to remove large debris, filtered through 40 μm cell strainer and centrifuged at 8000 g for 10 minutes to pellet bacteria. The supernatant was collected and loaded for 2 hours at RT on 96-well half area plates coated a day before at 4° C. with anti-IgA (Southern Biotech; 2 μg ml-1), anti-IgM (SouthernBiotech; 2 μg ml-1) or HEL protein (Sigma-Aldrich; 10 μg/ml). This step was followed by the addition of alkalinephophatase-conjugated goat anti-mouse IgA or IgM (both at 1 μg ml-1 in PBS 0.2% BSA) for 2 hours at RT. 4-nitrophenyl phosphate sodium salt hexahydrate (pNPP) (Sigma) was used as a substrate, and the colorimetric reaction was read at 405 nm as before.
Mediastinal lymph nodes were filtered through a 40 μm cell strainer, washed with PBS supplemented with 1% fetal bovine serum and 2 mM EDTA (Invitrogen) (MACS buffer). Lungs were finely cut with scissors, digested with Collagenase IV (Gibco™) in Iscove's modified Dulbecco's medium (IMDM, Gibco™) for 50 min at 37° C. and processed as the lymph nodes.

CCL20 = assay: In vitro stimulation of lung cells enriched for airway epithelial cells, chemokine release; type: cell-based, mouse; settings: 24 hours; for CCL20 production by lung cells stimulated with LPS: EGF 100 ng/ml, amphiregulin 500 ng/ml or gefitinib 0.16 μM, lower efficacy than PCS
Procedure: Mice were euthanized by CO2 inhalation, instilled with a 1.5 ml dispase II (Sigma-Aldrich) intratracheally, followed by intratracheal injection of 0.5 ml 1% low melting point agarose (Sigma-Aldrich). Lungs were then covered with ice for 3 min, removed and placed in a 15 ml falcon tube with 2 ml of dispase II, and incubated for 45 min with gentle agitation. This was followed by mechanical disruption of the lung lobes using forceps in DMEM supplemented with DNAse I (Sigma-Aldrich, 1U/ml), filtration through 70- and 40-μM cell strainers (Falcon®, Corning) and lysis of erythrocytes using red blood cell lysing buffer (BD Biosciences). Lung cells were plated in a flat-bottom 24-well or 96-well plates (Costar) coated with fibronectin (Sigma-Aldrich, 10 μg/ml) at the density of 1 mln or 0.2 mln cells/well, respectively.
5% CO2, after which the supernatant was collected and stored at −20° C. until further use.

[2] = system: mice exposed intranasally to ovalbumin/LPS; assay: OVA/LPS animal model of pulmonary type 1 inflammation; type: in vivo, mouse; settings: PCS intravenous on day -1 and day 11
Procedure: Results are from one experiment (n=4 per group, p=0.0335). All data are presented as mean values+/−SEM. *p≤0.05. Statistical significance was evaluated with Mann-Whitney test.
Mice were anaesthetized by the inhalation of 4% isoflurane in oxygen for 3-5 min. 100 μg Ovalbumin (Invivogen, cat nr vac-pova) was mixed with 10 μg LPS from E. coli (Sigma-Aldrich, cat nr L4391) and administered intranasally per mouse on days 0, 11, 12 and 13. Mice were sacrificed with the lethal dose of pentobarbital on day 14.

[3] = mouse, in vivo
Procedure: Concentrations of cystatin, clusterin, lipocalin-2 and osteopontin in serum of vehicle or PCStreated mice were determined with MILLIPLEX MAP Mouse Kidney Injury Magnetic Bead Panel 2—Toxicity Multiplex Assay (Merck) according to manufacturer's instructions.

[4] = system: epithelial cells, dendritic cells, macrophages and bone marrow precursors; assay: Effect of PCS on cells (deleteriousness); type: cell-based
[5] = mice with normal renal function, cited from earlier work
[6] = PCS intravenous 40 mg/kg, lymph node cells restimulated with HDM for 4 days
[7] = lung cells from naive mice, HDM 100 μg/ml, PCS 100 μg/ml

| Molecule | FoxP3+ Tregs in the lungs ([1]; PCS intravenous 40 mg/kg) | numbers of lung CD4+ T cells ([1]; PCS intravenous 40 mg/kg) | recruitment of neutrophils ([1]; PCS intravenous 40 mg/kg) | infiltration of DCs into the lungs ([1]; PCS intravenous 40 mg/kg, vs saline) | production of IL-5 by restimulated mediastinal lymph nodes [1, 6] | production of IL-13 by restimulated mediastinal lymph nodes [1, 6] | eosinophilia in the BALF ([1]; PCS intravenous (retro-orbital) 40 mg/kg on day -1 and day 11, vs saline, HDM days 0, 11, 12, 13) | HDM-induced production of CCL20 (CCL20; [7]) | HDM-induced secretion of other chemokines (CCL20; [7]) | LPS-induced CCL20 (CCL20; lung cells from naive mice, LPS 10 μg/ml, PCS 100 μg/ml) | infiltration of CD4+ T cells to the airways ([2]; ovalbumin/LPS) | infiltration of CD8+ T cells to the airways ([2]; ovalbumin/LPS) | infiltration of neutrophils to the airways ([2]; ovalbumin/LPS intranasal days 0, 11, 12, 13) | elevation of major kidney toxicity markers [3] | deleterious effect on epithelial cells, dendritic cells, macrophages and bone marrow precursors [4] | time to clearance from the blood ([5]; intraperitoneal or oral PCS) | accumulation on chronic administration ([5]; twice a day for 4 weeks) | CCL20 production by lung cells stimulated with LPS (CCL20; LPS 10 μg/ml) |
| --- | --- | --- | --- | --- | --- | --- | --- | --- | --- | --- | --- | --- | --- | --- | --- | --- | --- | --- |
| Cc1ccc(OS(=O)(=O)O)cc1 [PCS, p-cresol sulfate] | no major alterations | no major alterations | reduced | decreased | reduced | reduced | ameliorated | completely abrogated | did not have an effect | inhibited | inhibited | inhibited | inhibited | not detected | not deleterious | ≤ 4 h | does not lead to its accumulation | – |
| EGF: high affinity EGFR ligand, Epidermal Growth Factor | – | – | – | – | – | – | – | – | – | – | – | – | – | – | – | – | – | selective reduction |
| COc1cc2ncnc(Nc3ccc(F)c(Cl)c3)c2cc1OCCCN1CCOCC1 [gefitinib, reference compound] | – | – | – | – | – | – | – | – | – | – | – | – | – | – | – | – | – | selective reduction |
